Results taken from publication PMC4979471 (Cell Death Discovery, 2015).
Read-outs that look alike come from different tables or passages of the source.

Legend:
Test in all cases: Kinase selectivity, P33-radiolabeled assay
Type in all cases: biochemical
Settings in all cases: 10 μM ATP
IR = molecular target: T1, IR (Homo sapiens, UniProt P06213)
T1 construct: purchased Reaction Biology Corp
Method in brief: (§1)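 Activity relative to DMSO controls (%) was measured for compound at 10 μM. Assays ran at 10 μM ATP, in duplicate.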

EPHA3 = molecular target: T2, EPHA3 (Homo sapiens, UniProt P29320)
T2 construct: purchased Reaction Biology Corp
T2 sequence (P29320 21-983): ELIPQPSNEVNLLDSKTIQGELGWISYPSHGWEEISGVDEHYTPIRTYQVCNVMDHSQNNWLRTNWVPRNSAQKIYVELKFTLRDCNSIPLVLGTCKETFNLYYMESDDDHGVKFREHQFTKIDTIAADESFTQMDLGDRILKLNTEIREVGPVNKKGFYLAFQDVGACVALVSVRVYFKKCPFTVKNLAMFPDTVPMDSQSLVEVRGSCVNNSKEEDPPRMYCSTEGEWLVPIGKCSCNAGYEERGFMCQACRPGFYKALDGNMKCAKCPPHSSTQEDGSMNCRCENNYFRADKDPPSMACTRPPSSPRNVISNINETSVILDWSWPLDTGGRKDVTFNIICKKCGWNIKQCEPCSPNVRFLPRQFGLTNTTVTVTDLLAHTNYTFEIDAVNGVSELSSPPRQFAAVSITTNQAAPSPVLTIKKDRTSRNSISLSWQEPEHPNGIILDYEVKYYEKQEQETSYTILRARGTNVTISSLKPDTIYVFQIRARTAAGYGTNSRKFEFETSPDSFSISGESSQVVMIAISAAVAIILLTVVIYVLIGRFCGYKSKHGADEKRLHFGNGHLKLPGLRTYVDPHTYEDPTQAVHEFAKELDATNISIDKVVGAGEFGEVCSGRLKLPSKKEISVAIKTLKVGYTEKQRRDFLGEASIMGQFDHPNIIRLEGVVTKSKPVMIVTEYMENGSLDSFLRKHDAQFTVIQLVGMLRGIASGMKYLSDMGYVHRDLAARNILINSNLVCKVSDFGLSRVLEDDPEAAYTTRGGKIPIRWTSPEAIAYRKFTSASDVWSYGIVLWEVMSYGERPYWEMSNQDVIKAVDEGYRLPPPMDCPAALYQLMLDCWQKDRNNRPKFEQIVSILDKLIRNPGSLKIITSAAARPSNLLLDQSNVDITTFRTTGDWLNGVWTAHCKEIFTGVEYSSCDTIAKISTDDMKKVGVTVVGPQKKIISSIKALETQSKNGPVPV
Method in brief: as §1

CAMK1b = molecular target: T3, CAMK1b (Homo sapiens, UniProt Q6P2M8)
T3 construct: purchased Reaction Biology Corp
Method in brief: as §1

PDK1/PDPK1 = molecular target: T4, PDK1/PDPK1 (Homo sapiens, UniProt O15530)
T4 construct: purchased Reaction Biology Corp
T4 sequence (O15530 1-556): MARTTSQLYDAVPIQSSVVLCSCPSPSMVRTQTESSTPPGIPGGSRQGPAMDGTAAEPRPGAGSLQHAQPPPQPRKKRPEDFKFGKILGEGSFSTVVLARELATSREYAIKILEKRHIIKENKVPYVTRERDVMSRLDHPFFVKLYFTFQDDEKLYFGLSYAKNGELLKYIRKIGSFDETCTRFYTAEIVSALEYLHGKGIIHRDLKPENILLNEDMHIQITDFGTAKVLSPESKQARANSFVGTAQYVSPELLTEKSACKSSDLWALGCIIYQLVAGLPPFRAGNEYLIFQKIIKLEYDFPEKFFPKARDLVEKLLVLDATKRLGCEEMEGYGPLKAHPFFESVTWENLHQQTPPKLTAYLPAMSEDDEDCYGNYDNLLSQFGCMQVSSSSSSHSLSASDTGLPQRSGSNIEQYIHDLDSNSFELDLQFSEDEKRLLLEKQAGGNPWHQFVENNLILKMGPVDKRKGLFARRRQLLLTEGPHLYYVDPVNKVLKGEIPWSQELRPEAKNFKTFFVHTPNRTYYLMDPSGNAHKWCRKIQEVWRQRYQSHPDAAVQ
Method in brief: as §1

P38a/MAPK14 = molecular target: T5, P38a/MAPK14 (Homo sapiens, UniProt Q16539)
T5 construct: purchased Reaction Biology Corp
Method in brief: as §1

CDK7/cyclin H = molecular target: T6, CDK7/cyclin H (Homo sapiens, UniProt P50613)
T6 construct: purchased Reaction Biology Corp
Method in brief: as §1

P38d/MAPK13 = molecular target: T7, P38d/MAPK13 (Homo sapiens, UniProt O15264)
T7 construct: purchased Reaction Biology Corp
T7 sequence (O15264 1-365): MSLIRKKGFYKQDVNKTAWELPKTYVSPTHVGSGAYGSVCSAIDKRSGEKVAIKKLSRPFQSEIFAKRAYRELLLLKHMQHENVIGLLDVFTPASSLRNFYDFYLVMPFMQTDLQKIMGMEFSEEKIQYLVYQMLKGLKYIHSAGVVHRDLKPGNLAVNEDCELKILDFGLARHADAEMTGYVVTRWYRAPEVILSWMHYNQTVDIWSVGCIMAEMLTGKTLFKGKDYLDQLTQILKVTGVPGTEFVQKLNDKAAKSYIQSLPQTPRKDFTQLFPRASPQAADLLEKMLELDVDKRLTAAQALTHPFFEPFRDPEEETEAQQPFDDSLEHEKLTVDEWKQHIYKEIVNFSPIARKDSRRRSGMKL
Method in brief: as §1

MEK1 = molecular target: T8, MEK1 (Homo sapiens, UniProt Q02750)
T8 construct: purchased Reaction Biology Corp
Method in brief: as §1

BTK = molecular target: T9, BTK (Homo sapiens, UniProt Q06187)
T9 construct: purchased Reaction Biology Corp
Method in brief: as §1

JAK1 = molecular target: T10, JAK1 (Homo sapiens, UniProt P23458)
T10 construct: purchased Reaction Biology Corp
Method in brief: as §1

YES/YES1 = molecular target: T11, YES/YES1 (Homo sapiens, UniProt P07947)
T11 construct: purchased Reaction Biology Corp
Method in brief: as §1

FGFR2 = molecular target: T12, FGFR2 (Homo sapiens, UniProt P21802)
T12 construct: purchased Reaction Biology Corp
Method in brief: as §1

[1] = read-out: % Enzyme Activity (relative to DMSO controls) AVG
[2] = read-out: % Enzyme Activity (relative to DMSO controls) Data 1
[3] = read-out: % Enzyme Activity (relative to DMSO controls) Data 2

T11 sequence (P07947 whole entry): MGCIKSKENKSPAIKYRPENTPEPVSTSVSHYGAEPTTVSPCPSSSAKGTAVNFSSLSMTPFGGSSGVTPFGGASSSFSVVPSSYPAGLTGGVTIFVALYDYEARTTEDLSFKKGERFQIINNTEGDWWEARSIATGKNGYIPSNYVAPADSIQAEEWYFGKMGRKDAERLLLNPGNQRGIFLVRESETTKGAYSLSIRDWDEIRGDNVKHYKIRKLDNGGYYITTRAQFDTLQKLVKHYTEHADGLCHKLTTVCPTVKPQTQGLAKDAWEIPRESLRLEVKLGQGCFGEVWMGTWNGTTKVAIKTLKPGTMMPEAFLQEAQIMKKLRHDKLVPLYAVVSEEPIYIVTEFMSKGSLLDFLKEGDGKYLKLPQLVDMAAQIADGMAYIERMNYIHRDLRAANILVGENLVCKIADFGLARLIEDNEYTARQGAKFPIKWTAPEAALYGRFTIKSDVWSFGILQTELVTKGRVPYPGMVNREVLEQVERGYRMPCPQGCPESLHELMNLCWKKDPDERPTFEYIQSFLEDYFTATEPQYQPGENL
T6 sequence (P50613 whole entry): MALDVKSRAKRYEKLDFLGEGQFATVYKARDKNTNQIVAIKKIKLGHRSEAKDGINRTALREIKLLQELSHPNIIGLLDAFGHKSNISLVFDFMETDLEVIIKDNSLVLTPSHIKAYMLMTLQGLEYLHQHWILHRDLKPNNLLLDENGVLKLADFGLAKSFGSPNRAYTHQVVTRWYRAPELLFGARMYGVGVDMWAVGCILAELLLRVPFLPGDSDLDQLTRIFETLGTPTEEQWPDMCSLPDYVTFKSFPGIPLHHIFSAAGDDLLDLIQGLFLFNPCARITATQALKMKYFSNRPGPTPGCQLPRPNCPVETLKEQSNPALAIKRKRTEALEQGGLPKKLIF
T6 sequence (P51946 whole entry partner): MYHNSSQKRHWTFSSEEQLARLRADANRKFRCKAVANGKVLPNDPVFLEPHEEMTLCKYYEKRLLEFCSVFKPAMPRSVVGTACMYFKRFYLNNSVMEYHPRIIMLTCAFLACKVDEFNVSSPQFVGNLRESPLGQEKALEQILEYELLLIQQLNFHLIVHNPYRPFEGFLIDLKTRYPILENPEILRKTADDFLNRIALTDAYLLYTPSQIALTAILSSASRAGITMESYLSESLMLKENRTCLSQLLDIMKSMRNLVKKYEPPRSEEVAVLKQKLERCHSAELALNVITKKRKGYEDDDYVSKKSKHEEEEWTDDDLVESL
T6 sequence (P51948 whole entry partner): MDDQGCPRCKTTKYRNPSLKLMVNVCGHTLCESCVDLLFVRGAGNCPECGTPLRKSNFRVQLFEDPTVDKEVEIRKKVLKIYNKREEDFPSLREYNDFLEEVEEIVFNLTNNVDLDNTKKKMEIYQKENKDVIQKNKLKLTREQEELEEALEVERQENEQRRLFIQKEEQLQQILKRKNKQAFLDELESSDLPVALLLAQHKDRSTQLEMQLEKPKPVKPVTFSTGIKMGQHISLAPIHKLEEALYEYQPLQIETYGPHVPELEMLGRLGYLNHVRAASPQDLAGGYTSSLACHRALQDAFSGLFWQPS
T3 sequence (Q6P2M8 whole entry): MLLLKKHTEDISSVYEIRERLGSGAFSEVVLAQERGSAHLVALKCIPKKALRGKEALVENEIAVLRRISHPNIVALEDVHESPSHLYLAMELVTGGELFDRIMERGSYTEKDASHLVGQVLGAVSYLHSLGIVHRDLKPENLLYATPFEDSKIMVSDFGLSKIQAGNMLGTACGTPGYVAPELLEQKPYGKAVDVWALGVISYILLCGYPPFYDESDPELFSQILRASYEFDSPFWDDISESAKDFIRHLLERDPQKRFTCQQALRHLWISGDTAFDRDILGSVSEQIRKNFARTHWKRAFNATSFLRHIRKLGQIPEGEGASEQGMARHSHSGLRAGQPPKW
T1 sequence (P06213 28-1382): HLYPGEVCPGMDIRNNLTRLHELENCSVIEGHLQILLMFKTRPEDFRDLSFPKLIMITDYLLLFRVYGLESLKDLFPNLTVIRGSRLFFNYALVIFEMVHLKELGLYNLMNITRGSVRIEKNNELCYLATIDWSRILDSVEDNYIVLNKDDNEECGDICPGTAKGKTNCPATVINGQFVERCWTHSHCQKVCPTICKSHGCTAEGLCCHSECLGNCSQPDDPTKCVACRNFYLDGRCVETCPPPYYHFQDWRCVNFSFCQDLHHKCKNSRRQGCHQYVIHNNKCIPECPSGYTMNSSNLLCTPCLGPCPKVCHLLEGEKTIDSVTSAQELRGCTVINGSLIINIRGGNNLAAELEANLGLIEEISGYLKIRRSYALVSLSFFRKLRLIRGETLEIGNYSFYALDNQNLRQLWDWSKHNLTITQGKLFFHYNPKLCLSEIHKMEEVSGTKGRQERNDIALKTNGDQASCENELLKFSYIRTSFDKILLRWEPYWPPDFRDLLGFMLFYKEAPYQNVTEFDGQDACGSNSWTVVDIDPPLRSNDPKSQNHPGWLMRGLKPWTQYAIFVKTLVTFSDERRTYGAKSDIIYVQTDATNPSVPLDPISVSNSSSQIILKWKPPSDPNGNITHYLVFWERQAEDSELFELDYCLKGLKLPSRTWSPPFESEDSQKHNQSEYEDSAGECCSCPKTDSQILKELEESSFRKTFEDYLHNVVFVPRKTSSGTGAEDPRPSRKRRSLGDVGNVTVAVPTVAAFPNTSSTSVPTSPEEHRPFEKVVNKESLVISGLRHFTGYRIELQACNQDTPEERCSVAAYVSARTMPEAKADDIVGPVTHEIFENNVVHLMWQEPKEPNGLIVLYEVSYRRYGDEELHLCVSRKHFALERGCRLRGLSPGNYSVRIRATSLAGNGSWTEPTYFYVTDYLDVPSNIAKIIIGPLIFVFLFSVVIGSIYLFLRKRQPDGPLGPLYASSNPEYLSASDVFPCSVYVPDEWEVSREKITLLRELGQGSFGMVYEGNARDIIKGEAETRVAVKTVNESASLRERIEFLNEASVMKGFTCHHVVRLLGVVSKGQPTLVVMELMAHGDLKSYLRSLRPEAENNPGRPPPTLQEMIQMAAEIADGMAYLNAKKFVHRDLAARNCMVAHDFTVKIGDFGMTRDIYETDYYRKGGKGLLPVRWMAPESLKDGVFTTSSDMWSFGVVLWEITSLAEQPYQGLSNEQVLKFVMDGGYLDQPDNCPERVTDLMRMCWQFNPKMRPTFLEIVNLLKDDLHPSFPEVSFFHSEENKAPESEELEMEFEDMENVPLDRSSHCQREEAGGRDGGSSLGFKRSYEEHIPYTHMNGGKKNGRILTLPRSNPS
T8 sequence (Q02750 whole entry): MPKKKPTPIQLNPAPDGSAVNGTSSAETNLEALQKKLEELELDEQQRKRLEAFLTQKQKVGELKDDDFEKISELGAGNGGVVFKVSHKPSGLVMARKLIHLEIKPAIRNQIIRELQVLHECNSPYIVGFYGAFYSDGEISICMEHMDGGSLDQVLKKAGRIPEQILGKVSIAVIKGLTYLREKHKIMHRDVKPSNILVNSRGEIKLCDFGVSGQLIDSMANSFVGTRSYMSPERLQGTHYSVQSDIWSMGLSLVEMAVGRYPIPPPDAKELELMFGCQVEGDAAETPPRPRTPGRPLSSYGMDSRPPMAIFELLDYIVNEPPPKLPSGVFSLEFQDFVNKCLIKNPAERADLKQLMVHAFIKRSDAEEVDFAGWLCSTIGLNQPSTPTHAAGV
T10 sequence (P23458 whole entry): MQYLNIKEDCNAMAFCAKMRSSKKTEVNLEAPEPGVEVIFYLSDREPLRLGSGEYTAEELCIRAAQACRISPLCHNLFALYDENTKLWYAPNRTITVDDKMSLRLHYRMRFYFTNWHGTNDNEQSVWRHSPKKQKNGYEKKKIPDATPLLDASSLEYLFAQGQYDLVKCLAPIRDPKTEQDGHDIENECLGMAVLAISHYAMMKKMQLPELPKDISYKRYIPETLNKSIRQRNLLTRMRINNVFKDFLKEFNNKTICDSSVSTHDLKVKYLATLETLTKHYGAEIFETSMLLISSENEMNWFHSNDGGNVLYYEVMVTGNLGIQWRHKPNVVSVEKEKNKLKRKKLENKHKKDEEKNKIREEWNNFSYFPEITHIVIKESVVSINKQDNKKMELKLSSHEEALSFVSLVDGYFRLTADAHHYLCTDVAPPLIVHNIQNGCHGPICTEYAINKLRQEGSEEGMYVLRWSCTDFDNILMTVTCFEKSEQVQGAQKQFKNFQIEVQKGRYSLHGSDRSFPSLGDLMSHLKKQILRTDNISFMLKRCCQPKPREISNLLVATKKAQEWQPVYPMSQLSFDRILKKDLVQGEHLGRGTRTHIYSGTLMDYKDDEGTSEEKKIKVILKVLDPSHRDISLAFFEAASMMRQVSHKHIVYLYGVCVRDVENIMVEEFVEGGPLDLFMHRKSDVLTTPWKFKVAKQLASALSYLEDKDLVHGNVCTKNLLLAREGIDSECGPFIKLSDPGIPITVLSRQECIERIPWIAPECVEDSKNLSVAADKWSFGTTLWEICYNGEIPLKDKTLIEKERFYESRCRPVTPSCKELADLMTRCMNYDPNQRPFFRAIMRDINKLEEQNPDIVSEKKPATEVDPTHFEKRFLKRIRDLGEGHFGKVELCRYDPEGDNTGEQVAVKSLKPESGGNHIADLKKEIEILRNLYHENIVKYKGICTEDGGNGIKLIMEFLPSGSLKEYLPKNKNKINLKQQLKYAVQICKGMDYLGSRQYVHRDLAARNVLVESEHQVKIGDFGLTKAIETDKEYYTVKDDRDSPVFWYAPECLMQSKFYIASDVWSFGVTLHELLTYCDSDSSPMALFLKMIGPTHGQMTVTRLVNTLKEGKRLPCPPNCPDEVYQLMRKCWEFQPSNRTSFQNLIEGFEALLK

SMILES: CC(C)(C)C(=O)N1N=CC[C@H]1c1ccccc1 [GSK′963]
- remaining activity at 10 µM (IR; [1]): 101%
- remaining activity at 10 µM (IR; [2]): 104%
- remaining activity at 10 µM (IR; [3]): 97.1%
- remaining activity at 10 µM (EPHA3; [1]): 91.8%
- remaining activity at 10 µM (EPHA3; [2]): 94.4%
- remaining activity at 10 µM (EPHA3; [3]): 89.2%
- remaining activity at 10 µM (CAMK1b; [1]): 96.4%
- remaining activity at 10 µM (CAMK1b; [2]): 97.1%
- remaining activity at 10 µM (CAMK1b; [3]): 95.8%
- remaining activity at 10 µM (PDK1/PDPK1; [1]): 109%
- remaining activity at 10 µM (PDK1/PDPK1; [2]): 108%
- remaining activity at 10 µM (PDK1/PDPK1; [3]): 110%
- remaining activity at 10 µM (P38a/MAPK14; [1]): 94%
- remaining activity at 10 µM (P38a/MAPK14; [2]): 92.9%
- remaining activity at 10 µM (P38a/MAPK14; [3]): 95.2%
- remaining activity at 10 µM (CDK7/cyclin H; [1]): 96.7%
- remaining activity at 10 µM (CDK7/cyclin H; [2]): 98.8%
- remaining activity at 10 µM (CDK7/cyclin H; [3]): 94.6%
- remaining activity at 10 µM (P38d/MAPK13; [1]): 100%
- remaining activity at 10 µM (P38d/MAPK13; [2]): 99.8%
- remaining activity at 10 µM (P38d/MAPK13; [3]): 101%
- remaining activity at 10 µM (MEK1; [1]): 103%
- remaining activity at 10 µM (MEK1; [2]): 103%
- remaining activity at 10 µM (MEK1; [3]): 103%
- remaining activity at 10 µM (BTK; [1]): 95.6%
- remaining activity at 10 µM (BTK; [2]): 95%
- remaining activity at 10 µM (BTK; [3]): 96.1%
- remaining activity at 10 µM (JAK1; [1]): 98.8%
- remaining activity at 10 µM (JAK1; [2]): 97.9%
- remaining activity at 10 µM (JAK1; [3]): 99.8%
- remaining activity at 10 µM (YES/YES1; [1]): 88.2%
- remaining activity at 10 µM (YES/YES1; [2]): 88.7%
- remaining activity at 10 µM (YES/YES1; [3]): 87.8%
- remaining activity at 10 µM (FGFR2; [1]): 110%
- remaining activity at 10 µM (FGFR2; [2]): 108%
- remaining activity at 10 µM (FGFR2; [3]): 112%
